What was measured:
Format in all cases: cell-based
[1] = system: RAW264.7 mouse macrophage cells; experiment: GET transfection of pCMV-Gluc pDNA into RAW264.7 cells (FIG. 2); settings: 20,000 cells, 24 hours post-transfection of 1 μg pCMV-Gluc pDNA with GET
Procedure: Experiment on 20,000 RAW264.7 mouse macrophage cells, measured at 24 hours post-transfection of 1 μg pCMV-Gluc pDNA with GET. T=TPA(μM), S=SAHA (μM).

[2] = system: LCL lymphoblastoid human B cells; experiment: GET transfection of pCMV-Gluc pDNA into LCL cells (FIG. 3); settings: 20,000 cells, 24 hours post-transfection of 1 μs pCMV-Gluc pDNA with GET; short exposures of TPA
Procedure: Experiment on 20,000 LCL lymphoblastoid human B cells, measured at 24 hours post-transfection of […] pCMV-Gluc pDNA with GET. T=TPA(μM), S=SAHA (μM). TPA is shown to have the most effect on transfection in LCL cells, and it is enhanced by SAHA. There is effectively no transfection without these modulators.

[3] = system: T2 hybrid human T/B cells; experiment: GET transfection of pCMV-Gluc pDNA into T2 cells (FIG. 1); settings: 20,000 cells, 24 hours post-transfection of 1 μg pCMV-Gluc pDNA with GET
Procedure: Experiment on 20,000 T2 hybrid human T/B cells, measured at 24 hours post-transfection of 1 μg pCMV-Gluc pDNA with GET. T=TPA(μM), S=SAHA (μM). TPA is shown as the major effect on transfection efficiency in T2 cells.

SMILES | transfection of RAW264.7 cells (Gluc) [1] | transfection of LCL cells (Gluc) [2] | transfection of T2 cells (Gluc) [3]
O=C(CCCCCCC(=O)Nc1ccccc1)NO [SAHA, suberoylanilide hydroxamic acid] | significantly enhances transfection | significantly enhances transfection | –
CCCCCCCCCCCCCC(=O)O[C@@H]1[C@@H](C)[C@@]2(O)[C@@H](C=C(CO)C[C@]3(O)C(=O)C(C)=C[C@@H]23)[C@@H]2C(C)(C)[C@]12OC(C)=O [TPA, phorbol 12-myristate 13-acetate] | – | significantly enhances transfection | significantly enhances transfection

From patent US20220213178A1, “Enhanced Transfection” (The University of Nottingham, priority 2019, published 2022)
